From patent US20100029615A1, “BENZIMIDAZOLE DERIVATIVES” (priority 2006, published 2010)
Structures can show the parent of a compound that is named as a salt. Where two headings read alike, the source gives them in different places.

Molecular target: T1, SMO (Mus musculus, UniProt P56726)
T1 construct: endogenous in cells; host or cells: C3H10T1/2 (ATCC #CCL-226)
Experiment: Smoothened (SMO)/Sonic Hedgehog (SHh) Transient Transcriptional Activation Assay (Gli-luciferase reporter in C3H10T1/2 cells)
Assay type: cell-based, murine
Details: SHh 250 ng/ml, 20 hrs
Description: As noted above, the compounds of the invention are useful as inhibitors of SMO. Methods for determining the in vitro activity of these compounds are described below: Smoothened (SMO)/Sonic Hedgehog (SHh) Transient Transcriptional Activation Assay
On Day 1,2×10^6 C3H10T1/2 cells (ATCC #CCL-226) were split and seeded in 12 mls of growth medium Basal Medium Eagle (BME, Invitrogen #21010-046) supplemented with 2 mM L-glutamine (Invitrogen #25030-081), 0.1 units/ml penicillin and 0.1 ug/ml streptomycin (Invitrogen #15140-122), and 10% Fetal Bovine Serum (FBS, Invitrogen #16140-071) in a T-75 flask (Costar #3376). They were allowed to attach for 4 hours at 37° C., 5% CO2. The cells were then transfected using Fugene 6 (Roch #11 814 443 001) in the following reaction: 48 ul Fugene 6 and 745 ul Opti-MEM (Invitrogen #31985-070) were mixed and allowed to sit at room temperature for 5 minutes. 8 ug of pGL4.14/mGli(CS) DNA (10× murine Gli response elements and minimal CS promoter) and 0.5 ug of pEGFP DNA (Clontech) were added, gently mixed and incubated at room temperature for 20 minutes. This entire transfection mix was then added to the T-75 flask containing the cells. The cells were incubated at 37 °C, 5% C02 for 18-24 hrs.
On Day 2, the transfected cells were trypsinized and seeded into white 96 well plates (Costar #3917) in 100ul/well of growth medium at a concentration of 20,000 cells/well. The cells were allowed to recover for 4 hrs before adding serum starvation medium Dulbecco's Modified Eagle Medium (DMEM, Invitrogen #21063-029) supplemented with 2 mM L-glutamine, 0.1 units/ml penicillin and 0.1 ug/ml streptomycin, and 0.5% Calf Serum (CS, Invitrogen #26170-043). The growth media was aspirated off, and the cells were rinsed with 100 ul of starvation media. 95 ul of starvation media was then added to each well. The cells were incubated for 20 hrs at 37 °C, 5% C02.
On Day 3, cells were dosed with test compounds at a final concentration ranging from 2 uM to 2 nM. Immediately after dosing cells with compounds, recombinant human sonic hedgehog (SHh, R&D Systems #1845-SH) was add to a final concentration of 250 ng/ml. A 25 ug vial of SHh was reconstituted with 250 ul PBS/0.1% BSA to give a 100 ng/ul working stock. This working stock was then diluted 1:20 in starvation media. The transfected cells were incubated with compounds and SHh for 20 hrs at 37 °C, 5% C02.
Luciferase assays were conducted on Day 4 using Dual-Glo Luciferase assay system (Promega #E2940) according to Promega's protocol. Briefly, Dual-Glo luciferase reagent was made up and 100 uls were added to each well of the 96 well plate containing media. Plates were shaken at room temperature for 10 minutes, and then read on TopCount (Perkin-Elmer). The luminescence was recorded.

[1] = C3H 10T1/2, 2 uM test compound, read-out: SMO % inhibition at 2 uM
[2] = C3H 10T1/2, 2 μM test compound, read-out: SMO CELL % INHIBITION @ 2 μM

T1 sequence (P56726 33-793): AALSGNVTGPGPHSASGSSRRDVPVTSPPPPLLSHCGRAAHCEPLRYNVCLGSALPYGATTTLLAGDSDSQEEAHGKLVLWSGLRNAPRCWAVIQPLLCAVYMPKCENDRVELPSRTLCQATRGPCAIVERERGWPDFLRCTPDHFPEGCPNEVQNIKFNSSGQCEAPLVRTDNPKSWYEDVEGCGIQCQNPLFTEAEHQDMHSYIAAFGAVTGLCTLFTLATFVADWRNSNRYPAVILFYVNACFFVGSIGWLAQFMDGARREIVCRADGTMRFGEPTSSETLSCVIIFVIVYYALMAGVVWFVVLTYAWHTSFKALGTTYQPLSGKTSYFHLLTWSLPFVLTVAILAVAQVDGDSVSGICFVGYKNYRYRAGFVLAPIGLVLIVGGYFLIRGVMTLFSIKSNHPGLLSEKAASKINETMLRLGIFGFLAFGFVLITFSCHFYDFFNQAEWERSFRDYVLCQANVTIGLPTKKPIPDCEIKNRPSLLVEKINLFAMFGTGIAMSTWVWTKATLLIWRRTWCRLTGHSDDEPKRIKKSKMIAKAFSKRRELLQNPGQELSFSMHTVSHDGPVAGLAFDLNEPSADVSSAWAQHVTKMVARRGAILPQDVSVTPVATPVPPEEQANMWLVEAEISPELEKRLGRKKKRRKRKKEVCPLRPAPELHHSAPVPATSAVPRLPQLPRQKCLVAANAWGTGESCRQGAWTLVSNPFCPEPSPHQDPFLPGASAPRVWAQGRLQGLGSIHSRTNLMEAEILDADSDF

| Compound | inhibition at 2 µM [1] [%] | inhibition at 2 µM [2] [%] |
| --- | --- | --- |
| COCCNCc1ccc2nc([C@H]3CCC[C@@H](NC(=O)c4ccc5c(c4)OCCO5)C3)[nH]c2c1 [Example 43] | 99 |  |
| CN(C)Cc1ccc2nc([C@H]3CCC[C@@H](NC(=O)c4ccc5c(c4)OCCO5)C3)[nH]c2c1 [Example 44, N-((1R,3S)-3-(5-((Dimethylamino)methyl)-1H-benzo[d]imidazol-2-yl)cyclohexyl)-2,3-dihydrobenzo[b][1,4]dioxine-6-carboxamide] | 107 |  |
| CN1C(=O)COc2ccc(C(=O)N[C@@H]3CCC[C@H](c4nc5ccccc5[nH]4)C3)cc21 [Example 45, N-((1R,3S)-3-(1H-Benzo[d]midazol-2-yl)cyclohexyl)-4-methyl-3-oxo-3,4-dihydro-2H-benzo[b][1,4]oxazine-6-carboxamide] | 108 |  |
| O=C(Cc1nc2ccc(Cl)cc2[nH]1)NC1CCCC(c2nc3ccccc3[nH]2)C1 (centres unmarked) [Example 46, N-(3-(1H-Benzo[d]imidazol-2-yl)cyclohexyl)-2-(6-chloro-1H-benzo[d]imidazol-2-yl)acetamide] | 108 |  |
| O=C(Nc1ccc(C(F)(F)F)cc1)N[C@@H]1CCC[C@H](c2nc3ccccc3[nH]2)C1 [Example 47, 1-((1R,3S)-3-(1H-Benzo[d]imidazol-2-yl)cyclohexyl]-3-(4-(trifluoromethyl)phenyl)urea] | 108 |  |
| COc1cc(OC)cc(C(=O)NC2CCCC(c3nc4ccccc4[nH]3)C2)c1 (centres unmarked) [Example 52, N-[3-(1H-benzimidazol-2-yl)cyclohexyl]-3,5-dimethoxybenz-amide HCl] |  | 105 |
| O=C(NC1CCCC(c2nc3ccccc3[nH]2)C1)c1cccnc1 (centres unmarked) [Example 53, N-[3-(1H-benzimidazol-2-yl)cyclohexyl]-nicotinamide HCl] |  | 96 |
| O=C(CCC1CCCC1)NC1CCCC(c2nc3ccccc3[nH]2)C1 (centres unmarked) [Example 54, N-[3-(1H-benzimidazol-2-yl)cyclohexyl]-3-cyclopentylpro-panamide HCl] |  | 67 |
| CC(C)(C)C(=O)NC1CCCC(c2nc3ccccc3[nH]2)C1 (centres unmarked) [Example 55, N-[3-(1H-benzimidazol-2-yl)cyclohexyl]-2,2-dimethylpropan-amide HCl] |  | 57 |
| O=C(NC1CCCC(c2nc3ccccc3[nH]2)C1)c1ccco1 (centres unmarked) [Example 56, N-[3-(1H-benzimidazol-2-yl)cyclohexyl]-2-furamide HCl] |  | 51 |
| O=C(NC1CCCC(c2nc3ccccc3[nH]2)C1)C1CCCCC1 (centres unmarked) [Example 57, N-(3-(1H-benzo[d]imidazol-2-yl)cyclohexyl) cyclohexanecar-boxamide HCl] |  | 48 |
| O=C(NC1CCCC(c2nc3ccccc3[nH]2)C1)c1ccc2c(c1)OCO2 (centres unmarked) [Example 58, N-[3-(1H-benzimidazol-2-yl)cyclohexyl]-1,3-benzodioxole-5-carboxamide HCl] |  | 82 |
| COc1ccc(C(=O)NC2CCCC(c3nc4ccccc4[nH]3)C2)cc1Cl (centres unmarked) [Example 59, N-[3-(1H-benzimidazol-2-yl)cyclohexyl]-3-chloro-4-methoxybenz-amide HCl] |  | 101 |
| O=C(NC1CCCC(c2nc3ccccc3[nH]2)C1)c1ccc2[nH]cnc2c1 (centres unmarked) [Example 60, N-[3-(1H-benzimidazol-2-yl)cyclohexyl]-1H-benzimidazole-5-carboxamide HCl] |  | 87 |
| O=C(NC1CCCC(c2nc3ccccc3[nH]2)C1)c1ncc[nH]1 (centres unmarked) [Example 61, N-[3-(1H-benzimidazol-2-yl)cyclohexyl]-1H-imidazole-2-carboxamide HCl] |  | 52 |
| COc1ccc(C(=O)NC2CCCC(c3nc4ccccc4[nH]3)C2)cc1 (centres unmarked) [Example 62, N-[3-(1H-benzimidazol-2-yl)cyclohexyl]-4-methoxybenz-amide HCl] |  | 72 |
| O=C(N[C@@H]1CCC[C@H](c2nc3ccccc3[nH]2)C1)c1ccc2c(c1)OCCO2 [Example 63, N-[(1R,3S)-3-(1H-benzimidazol-2-yl)cyclohexyl]-2,3-dihydro-1,4-benzodioxine-6-carboxamide HCl] |  | 108 |
| O=C(N[C@@H]1CCC[C@H](c2nc3ccccc3[nH]2)C1)c1ccc2c(c1)OCCO2 [Example 64, N-[(1R,3S)-3-(1H-benzimidazol-2-yl)cyclohexyl]-2,3-dihydro-1,4-benzodioxine-6-carboxamide triflouroacetate] |  | 108 |
| O=C(N[C@@H]1CCC[C@@H](c2nc3ccccc3[nH]2)C1)c1ccc2c(c1)OCCO2 [Example 65, N-[(1R,3R)-3-(1H-benzimidazol-2-yl)cyclohexyl]-2,3-dihydro-1,4-benzodioxine-6-carboxamide HCl] |  | 96 |
| Cn1c([C@H]2CCC[C@@H](NC(=O)c3ccc4c(c3)OCCO4)C2)nc2ccccc21 [Example 66, N-[(1R,3S)-3-(1-methyl-1H-benzimidazol-2-yl)cyclohexyl]-2,3-dihydro-1,4-benzodioxine-6-carboxamide HCl] |  | 107 |
| COc1cc(OC)cc(C(=O)NC2CCCC(c3nc4ccc(C#N)cc4[nH]3)C2)c1 (centres unmarked) [Example 68, N-[3-(6-cyano-1H-benzimidazol-2-yl)cyclohexyl]-3,5-dimethoxybenz-amide] |  | 89 |
| COc1cc(OC)cc(C(=O)NC2CCCC(c3nc4ccc(OC)cc4[nH]3)C2)c1 (centres unmarked) [Example 69, 3,5-dimethoxy-N-[3-(6-methoxy-1H-benzimidazol-2-yl)cyclohexyl] benzamide] |  | 105 |
| COc1cc(OC)cc(C(=O)NC2CCCC(c3nc4ccc(F)cc4[nH]3)C2)c1 (centres unmarked) [Example 70, N-[3-(6-fluoro-1H-benzimidazol-2-yl)cyclohexyl]-3,5-dimethoxybenz-amide] |  | 83 |
| O=C(N[C@H]1CCC[C@@H](c2nc3ccccc3[nH]2)C1)c1ccc2c(c1)OCCO2 [Example 72, N-((1S,3R)-3-(1H-benzo[d]imidazol-2-yl)cyclohexyl)-2,3-dihydrobenzo[b] [1,4]dioxine-6-carboxamide HCl] |  | 96 |
| Cn1c(C2CCCC(NC(=O)c3ccc4c(c3)OCCO4)C2)nc2cc(CN)ccc21 (centres unmarked) [Example 73, N-{3-[5-(aminomethyl)-1-methyl-1H-benzimidazol-2-yl]cyclohexyl}-2,3-dihydro-1,4-benzodioxine-6-carboxamide HCl] |  | 104 |
| COc1cc(OC)cc(C(=O)NC2CCCC(c3nc4cc(C(F)(F)F)ccc4[nH]3)C2)c1 (centres unmarked) [Example 74, 3,5-dimethoxy-N-{3-[6-(trifluoromethyl)-1H-benzimidazol-2-yl)cyclohexyl}-benzamide HCl] |  | 105 |
| S=C(N[C@@H]1CCC[C@H](c2nc3ccccc3[nH]2)C1)c1ccc2c(c1)OCCO2 [Example 75, N-((1R,3S)-3-(1H-benzo[d]imidazol-2-yl)cyclohexyl)-2,3-dihydrobenzo[b] [1,4]dioxine-6-carbothioamide HCl] |  | 104 |
| COCCn1c([C@H]2CCC[C@@H](NC(=O)c3ccc4c(c3)OCCO4)C2)nc2ccccc21 [Example 76, N-{(1R,3S)-3-[1-(2-methoxyethyl)-1H-benzimidazol-2-yl]cyclohexyl}-2,3-dihydro-1,4-benzodioxine-6-carboxamide] |  | 101 |
| CN(C)c1ccc2nc(C3CCCC(NC(=O)c4ccc5c(c4)OCCO5)C3)[nH]c2c1 (centres unmarked) [Example 77, N-{3-[6-(dimethylamino)-1H-benzimidazol-2-yl]cyclohexyl}-2,3-dihydro-1,4-benzodioxine-6-carboxamide HCl] |  | 102 |
